Measured values: US20030187049A1, “Compositions based on aminoacids, suitable for improving muscle performance” (priority 2003, published 2003)

Tested on: athletes
Assay: comparative study of amino acids mixture, creatine and placebo in athletes: bench press, squat, braked bicycle ergometer
Format: in vivo, humans
Description: The effects on energy balance of the an amino acids mixture according to the invention as above indicated were the subject of a comparative study with creatine, on a weight ratio (w/w), or with no treatment, on a large group of volunteers submitted to a rigid protocol of alimentation and training. […] In some athletes, also heart frequency rate and VO2 max were registered while performing a treadmill test, before arid at the end of this study.

[1] = after one month of treatment and training, mixture 24 g/d, creatine 25 g/d

Structure (SMILES): CN(CC(=O)O)C(=N)N [creatine]
- performances over basal and no treatment group (after one month): significant improvements of performances
- Bench press [1]: 177 ± 34 kg
- Squat Room. [1]: 148.5 ± 31.2 kg
- Watt/Kg max (maximal power productive performance on a braked bicycle ergometer) [1]: 9.8 ± 0.6 watt/kg max
